The numbers were not newly measured in patent US8017624B2, “Fused aminopiperidines as dipeptidyi peptidase-IV inhibitors for the treatment or prevention of diabetes” (Merck Sharp & Dohme Corp., priority 2005, dated 2011), which cites them from elsewhere.

Molecules are shown by their SMILES.

Series [1] relates to cardiac allograft survival. Particulars: rats; Transplantation 63: 1495-1500 (1997).
The test system of a further series is hematopoiesis. The conditions noted are these: mouse, cyclophosphamide-induced neutropenia; WO 99/56753.
The next series deals with T1, DPP-IV (Homo sapiens, UniProt P27487).
T1 construct: GRF is rapidly degraded in plasma to GRF[3-44]
T1 sequence (P27487 whole entry, species assumed): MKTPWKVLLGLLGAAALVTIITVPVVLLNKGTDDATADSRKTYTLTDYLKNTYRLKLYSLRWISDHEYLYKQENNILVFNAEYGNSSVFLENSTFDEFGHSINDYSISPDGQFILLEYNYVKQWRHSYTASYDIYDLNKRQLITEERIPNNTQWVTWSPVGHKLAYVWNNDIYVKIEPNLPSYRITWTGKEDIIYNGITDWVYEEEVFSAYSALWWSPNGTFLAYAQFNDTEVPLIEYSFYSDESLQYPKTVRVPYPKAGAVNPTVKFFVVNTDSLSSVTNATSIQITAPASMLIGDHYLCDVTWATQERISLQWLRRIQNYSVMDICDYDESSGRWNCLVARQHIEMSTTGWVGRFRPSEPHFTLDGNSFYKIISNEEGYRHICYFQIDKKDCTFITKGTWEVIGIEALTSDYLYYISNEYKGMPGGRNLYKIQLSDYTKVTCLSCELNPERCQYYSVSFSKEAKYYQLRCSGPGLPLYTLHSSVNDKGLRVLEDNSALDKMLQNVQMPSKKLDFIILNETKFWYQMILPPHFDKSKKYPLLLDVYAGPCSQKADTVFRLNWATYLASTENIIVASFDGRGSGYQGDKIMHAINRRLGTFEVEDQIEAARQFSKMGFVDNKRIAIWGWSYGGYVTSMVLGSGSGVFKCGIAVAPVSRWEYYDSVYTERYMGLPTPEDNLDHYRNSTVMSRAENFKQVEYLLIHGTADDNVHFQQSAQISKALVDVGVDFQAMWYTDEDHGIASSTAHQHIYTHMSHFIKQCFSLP

For `CC(C)N1CCC(c2ccccc2)(c2ccccc2)CC1` [Prodipine, Pro-Pro-diphenyl-phosphonate], the cardiac allograft survival result in series [1] is listed as “double cardiac allograft survival in rats from day 7 to day 14”.

For the compound `CC(C)[C@H](N)C(=O)N1CCC[C@H]1B(O)O` [Val-Boro-Pro], the effect on hematopoiesis result with hematopoiesis is “stimulated hematopoiesis”.

Take `CC[C@H](C)[C@H](N)C(=O)N1CCC[C@H]1C(=O)N[C@H](C(=O)O)[C@@H](C)CC` [diprotin A]: the “degradation of GRF in plasma to GRF[3-44]” value on DPP-IV is “prevented”.
